Measured values as given in BindingDB's records for doi:10.1016/s0014-2999(02)01314-6 (Takeda Chemical Industries, 2002).

Molecular target: Melanin-concentrating hormone receptor 1 (Rattus norvegicus, UniProt P97639)
Sequence (P97639 whole entry): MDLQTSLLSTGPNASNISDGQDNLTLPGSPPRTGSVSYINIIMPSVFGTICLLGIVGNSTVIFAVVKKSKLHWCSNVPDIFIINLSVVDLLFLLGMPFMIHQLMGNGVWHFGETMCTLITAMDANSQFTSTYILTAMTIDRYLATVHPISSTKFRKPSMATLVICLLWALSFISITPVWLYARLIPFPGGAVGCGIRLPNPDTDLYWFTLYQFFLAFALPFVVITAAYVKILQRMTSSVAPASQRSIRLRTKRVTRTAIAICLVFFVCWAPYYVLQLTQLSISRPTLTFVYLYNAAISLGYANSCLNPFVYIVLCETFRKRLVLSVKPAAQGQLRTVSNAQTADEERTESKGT

With `CN(C)CC1CCc2cc(NC(=O)c3ccc(-c4ccc(F)cc4)cc3)ccc2C1` (stereo unspecified) [4''-Fluoro-biphenyl-4-carboxylic acid (6-dimethylaminomethyl-5,6,7,8-tetrahydro-naphthalen-2-yl)-amide] the Ki was 8.6 nM.
